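In this assay, cells in 96-well plates receive the compound at five concentrations for 48 hours. Endpoints are linearly interpolated between the surrounding concentrations. Definition used: TGI = concentration required for complete inhibition of growth.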
Experiments:
Assay in all cases: NCI-60 cell line screen, 48 h
SNB-78 CNS = test system: SNB-78 CNS
SK-MEL-28 melanoma = test system: SK-MEL-28 melanoma
SNB-75 CNS = test system: SNB-75 CNS
NCI-H460 lung = test system: NCI-H460 lung
SK-MEL-5 melanoma = test system: SK-MEL-5 melanoma
DLD-1 colon = test system: DLD-1 colon
DMS 273 small cell lung = test system: DMS 273 small cell lung
LOX IMVI melanoma = test system: LOX IMVI melanoma
MOLT-4 leukemia = test system: MOLT-4 leukemia
HCT-116 colon = test system: HCT-116 colon
UACC-62 melanoma = test system: UACC-62 melanoma
SF-268 CNS = test system: SF-268 CNS
M19-MEL melanoma = test system: M19-MEL melanoma
UO-31 renal = test system: UO-31 renal
ACHN renal = test system: ACHN renal
MALME-3M melanoma = test system: MALME-3M melanoma
SF-295 CNS = test system: SF-295 CNS
EKVX NSCLC = test system: EKVX NSCLC
OVCAR-5 ovarian = test system: OVCAR-5 ovarian
HL-60(TB) leukemia = test system: HL-60(TB) leukemia
HOP-92 NSCLC = test system: HOP-92 NSCLC
U251 CNS = test system: U251 CNS
KM20L2 colon = test system: KM20L2 colon
NCI-H522 lung = test system: NCI-H522 lung
LXFL 529 NSCLC = test system: LXFL 529 NSCLC
RPMI-8226 leukemia = test system: RPMI-8226 leukemia
COLO 205 colon = test system: COLO 205 colon
M14 melanoma = test system: M14 melanoma
KM12 colon = test system: KM12 colon
786-0 renal = test system: 786-0 renal
HCT-15 colon = test system: HCT-15 colon
CCRF-CEM leukemia = test system: CCRF-CEM leukemia
SN12C renal = test system: SN12C renal
DMS 114 small cell lung = test system: DMS 114 small cell lung
OVCAR-3 ovarian = test system: OVCAR-3 ovarian
A549 NSCLC = test system: A549 NSCLC
NCI-H23 lung = test system: NCI-H23 lung
SF-539 CNS = test system: SF-539 CNS
A498 renal = test system: A498 renal
SR leukemia = test system: SR leukemia
SK-MEL-2 melanoma = test system: SK-MEL-2 melanoma
TK-10 renal = test system: TK-10 renal
OVCAR-8 ovarian = test system: OVCAR-8 ovarian
SNB-19 CNS = test system: SNB-19 CNS
K-562 leukemia = test system: K-562 leukemia
NCI-H226 lung = test system: NCI-H226 lung
HCC-2998 colon = test system: HCC-2998 colon
HOP-62 NSCLC = test system: HOP-62 NSCLC
RXF 393 renal = test system: RXF 393 renal
XF 498 CNS = test system: XF 498 CNS
CAKI-1 renal = test system: CAKI-1 renal
OVCAR-4 ovarian = test system: OVCAR-4 ovarian
IGROV1 ovarian = test system: IGROV1 ovarian
SW-620 colon = test system: SW-620 colon
HT29 colon = test system: HT29 colon
SK-OV-3 ovarian = test system: SK-OV-3 ovarian
HOP-18 NSCLC = test system: HOP-18 NSCLC

Which results are given for `COc1ccc(C(=O)c2c(C(C(=O)c3ccc(OC)cc3)C(=O)c3ccc(OC)cc3)n(C(=O)c3ccc(OC)cc3)c3ccccc23)cc1`?
TGI (SNB-78 CNS): > 100 µM; TGI (SK-MEL-28 melanoma): > 100 µM; TGI (SNB-75 CNS): > 100 µM; TGI (NCI-H460 lung): > 100 µM; TGI (SK-MEL-5 melanoma): > 100 µM; TGI (DLD-1 colon): > 100 µM; TGI (DMS 273 small cell lung): > 100 µM; TGI (LOX IMVI melanoma): > 100 µM; TGI (MOLT-4 leukemia): > 100 µM; TGI (HCT-116 colon): > 100 µM; TGI (UACC-62 melanoma): > 100 µM; TGI (SF-268 CNS): > 100 µM; TGI (M19-MEL melanoma): > 100 µM; TGI (UO-31 renal): > 100 µM; TGI (ACHN renal): > 100 µM; TGI (MALME-3M melanoma): > 100 µM; TGI (SF-295 CNS): > 100 µM; TGI (EKVX NSCLC): > 100 µM; TGI (OVCAR-5 ovarian): > 100 µM; TGI (HL-60(TB) leukemia): > 100 µM; TGI (HOP-92 NSCLC): > 100 µM; TGI (U251 CNS): > 100 µM; TGI (KM20L2 colon): > 100 µM; TGI (NCI-H522 lung): > 100 µM; TGI (LXFL 529 NSCLC): > 100 µM; TGI (RPMI-8226 leukemia): > 100 µM; TGI (COLO 205 colon): > 100 µM; TGI (M14 melanoma): > 100 µM; TGI (KM12 colon): > 100 µM; TGI (786-0 renal): > 100 µM; TGI (HCT-15 colon): > 100 µM; TGI (CCRF-CEM leukemia): > 100 µM; TGI (SN12C renal): > 100 µM; TGI (DMS 114 small cell lung): > 100 µM; TGI (OVCAR-3 ovarian): > 100 µM; TGI (A549 NSCLC): > 100 µM; TGI (NCI-H23 lung): > 100 µM; TGI (SF-539 CNS): > 100 µM; TGI (A498 renal): > 100 µM; TGI (SR leukemia): > 100 µM; TGI (SK-MEL-2 melanoma): > 100 µM; TGI (TK-10 renal): > 100 µM; TGI (OVCAR-8 ovarian): > 100 µM; TGI (SNB-19 CNS): > 100 µM; TGI (K-562 leukemia): > 100 µM; TGI (NCI-H226 lung): > 100 µM; TGI (HCC-2998 colon): > 100 µM; TGI (HOP-62 NSCLC): > 100 µM; TGI (RXF 393 renal): > 100 µM; TGI (XF 498 CNS): > 100 µM; TGI (CAKI-1 renal): > 100 µM; TGI (OVCAR-4 ovarian): > 100 µM; TGI (IGROV1 ovarian): > 100 µM; TGI (SW-620 colon): > 100 µM; TGI (HT29 colon): > 100 µM; TGI (SK-OV-3 ovarian): > 100 µM

With `OC[C@@H]1CC#C/C=C\C#CC[C@@H]1CO` as the molecule, how does the TGI (SNB-78 CNS) read?
The TGI was greater than 100 µM.

And the TGI (SK-MEL-28 melanoma)?
The TGI was greater than 100 µM.

What about the TGI (SK-MEL-5 melanoma) of the same molecule?
The TGI was greater than 100 µM.

And the TGI (DLD-1 colon)?
Its TGI is greater than 100 µM.

And the TGI (MOLT-4 leukemia)?
Its TGI is greater than 100 µM.

And the TGI (HCT-116 colon)?
The TGI was greater than 100 µM.

What about the TGI (M19-MEL melanoma) of the same molecule?
Its TGI is greater than 100 µM.

And the TGI (UO-31 renal)?
The TGI was greater than 100 µM.

What about the TGI (MALME-3M melanoma) of the same molecule?
The TGI was greater than 100 µM.

What about the TGI (SF-295 CNS) of the same molecule?
Its TGI is greater than 100 µM.

And the TGI (EKVX NSCLC)?
The TGI was greater than 100 µM.

And the TGI (OVCAR-5 ovarian)?
The TGI was greater than 100 µM.

And the TGI (HL-60(TB) leukemia)?
Its TGI is greater than 100 µM.

What about the TGI (U251 CNS) of the same molecule?
The TGI was greater than 100 µM.

And the TGI (HOP-18 NSCLC)?
Its TGI is greater than 100 µM.

What about the TGI (RPMI-8226 leukemia) of the same molecule?
The TGI was greater than 100 µM.

What about the TGI (COLO 205 colon) of the same molecule?
Its TGI is greater than 100 µM.

What about the TGI (M14 melanoma) of the same molecule?
Its TGI is greater than 100 µM.

What about the TGI (KM12 colon) of the same molecule?
The TGI was greater than 100 µM.

And the TGI (786-0 renal)?
The TGI was greater than 100 µM.

And the TGI (HCT-15 colon)?
Its TGI is greater than 100 µM.

And the TGI (DMS 114 small cell lung)?
The TGI was greater than 100 µM.

And the TGI (OVCAR-3 ovarian)?
Its TGI is greater than 100 µM.

What about the TGI (NCI-H23 lung) of the same molecule?
Its TGI is greater than 100 µM.

And the TGI (SF-539 CNS)?
Its TGI is greater than 100 µM.

And the TGI (SK-MEL-2 melanoma)?
Its TGI is greater than 100 µM.

And the TGI (TK-10 renal)?
The TGI was greater than 100 µM.

What about the TGI (OVCAR-8 ovarian) of the same molecule?
The TGI was greater than 100 µM.

And the TGI (SNB-19 CNS)?
The TGI was greater than 100 µM.

What about the TGI (K-562 leukemia) of the same molecule?
Its TGI is greater than 100 µM.

What about the TGI (HCC-2998 colon) of the same molecule?
The TGI was greater than 100 µM.

What about the TGI (HOP-62 NSCLC) of the same molecule?
The TGI was greater than 100 µM.

What about the TGI (RXF 393 renal) of the same molecule?
Its TGI is greater than 100 µM.

What about the TGI (XF 498 CNS) of the same molecule?
Its TGI is 6.99 µM.

And the TGI (CAKI-1 renal)?
Its TGI is greater than 100 µM.

And the TGI (OVCAR-4 ovarian)?
Its TGI is greater than 100 µM.

And the TGI (IGROV1 ovarian)?
Its TGI is greater than 100 µM.

And the TGI (HT29 colon)?
Its TGI is greater than 100 µM.

And the TGI (SK-OV-3 ovarian)?
The TGI was greater than 100 µM.

— PubChem BioAssay (NCI)
